Laboratory results: US11479802B2, “Assays for screening activity of modulators of members of the hydroxy steroid (17-beta) dehydrogenase (HSD17B) family” (Regeneron Pharmaceuticals, Inc., priority 2017, dated 2022)

Biological target: T1, human HSD17B13 (Homo sapiens, UniProt Q7Z5P4)
T1 sequence (Q7Z5P4 20-300): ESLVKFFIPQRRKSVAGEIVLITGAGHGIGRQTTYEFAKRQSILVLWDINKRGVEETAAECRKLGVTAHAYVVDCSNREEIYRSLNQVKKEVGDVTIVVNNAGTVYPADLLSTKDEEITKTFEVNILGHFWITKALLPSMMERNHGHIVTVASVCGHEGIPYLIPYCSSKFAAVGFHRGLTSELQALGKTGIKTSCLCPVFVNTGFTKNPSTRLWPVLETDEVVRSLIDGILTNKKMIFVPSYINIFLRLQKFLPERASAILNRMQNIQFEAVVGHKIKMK
Experiment: Substrate screening of steroid and bioactive lipid libraries against purified recombinant HSD17B13 (NADH-linked luciferase assay)
Format: biochemical
Settings: for HSD17B13 Enzymatic Activity Relative Light Units: 500 μM NAD+, 100 ng enzyme, 3 hours at 23° C.; for HSD17B13 Enzymatic Activity Percent Estradiol Control: normalized to 50 μM estradiol after subtraction of 5% DMSO
Method: To understand the functional consequences of premature truncation of the HSD17B13 protein due to rs72613567:TA (the associated variant, rs72613567, is an insertion of an adenine adjacent to the donor splice site of exon six (TA allele)), the enzymatic activity of isoforms A and D was evaluated in vitro using recombinant protein and nicotinamide […] dinucleotide as cofactor. Reactions were performed in a final volume of 40 μl of assay buffer (0.2 M Tris-HCl, pH 7.5) which contained 500 μM NAD^+, 5 μM bioactive lipid or 50 μM steroid (all in a final concentration of 5% DMSO), and 100 ng of recombinant human HSD17B13. Reactions were incubated for 3 hours, at 23° C., after which an equal volume detection reagent was added. Following a 1 hour incubation at 23° C., the relative light units (RLUs) were measured on an Envision Plate Reader (Perkin Elmer). Raw RLU values were normalized as percent of control (50 μM estradiol) following subtraction of negative control (5% DMSO) using the following formula: Percent of control (POC)=100×(Sample (RLU)−Negative CTRLaverage)/(Positive CTRLaverage−Negative CTRLaverage).

[1] = Bioactive Lipid Library, 5 μM bioactive lipid (Estradiol Control 50 μM)
[2] = Bioactive Lipid Library, 5 μM bioactive lipid

Row | Compound | HSD17B13 Enzymatic Activity Relative Light Units [1] [RLU] | HSD17B13 Enzymatic Activity Percent Estradiol Control [2] [%] | HSD17B13 Enzymatic Activity Relative Light Units (Steroid Library, 50 μM steroid) [RLU] | HSD17B13 Enzymatic Activity Percent Estradiol Control (Steroid Library, 50 μM steroid) [%]
1 | CCCCCC(=O)CC[C@@H]1[C@H](C/C=C\CCCC(=O)O)[C@@H](O)C[C@H]1O [8-iso-13,14-dihydro-15-keto Prostaglandin F2α] | 212520 | −5.58 |  | 
2 | CCCCCC(=O)/C=C/[C@H]1C(O)CC(=O)[C@H]1C/C=C\CCCC(=O)O (some centres unmarked) [8-iso-15-keto Prostaglandin E2] | 262160 | −1.65 |  | 
3 | CCCCCC(=O)/C=C/[C@@H]1[C@H](C/C=C\CCCC(=O)O)[C@@H](O)C[C@H]1O [8-iso-15-keto Prostaglandin F2α] | 312360 | 2.31 |  | 
4 | CCCCC/C=C\C/C=C\C[C@@H](O)/C=C/C=C\CCCC(=O)O [9(R)-HETE] | 1656640 | 101.86 |  | 
5 | CCCCC/C=C\C=C\[C@H](O)CCCCCCCC(=O)O [9(R)-HODE] | 413280 | 9.40 |  | 
6 | CC/C=C\C/C=C\C/C=C\C[C@H](O)/C=C/C=C\CCCC(=O)O [9(S)-HEPE] | 564200 | 20.63 |  | 
7 | CCCCC/C=C\C/C=C\C[C@H](O)/C=C/C=C\CCCC(=O)O [9(S)-HETE] | 497640 | 15.68 |  | 
8 | CCCCC/C=C\C=C\[C@@H](O)CCCCCCCC(=O)O [9(S)-HODE] | 539560 | 18.79 |  | 
9 | CC/C=C\C/C=C\C=C\[C@@H](O)CCCCCCCC(=O)O [9(S)-HOTrE] | 586800 | 22.31 |  | 
10 | CCCCC/C=C\C=C\[C@H](CCCCCCCC(=O)O)OO [9(S)-HpODE] | 219240 | −5.03 |  | 
11 | CCCCCCCC/C=C(\CCCCCCCC(=O)O)[N+](=O)[O-] [9-Nitrooleate] | 31600 | −22.16 |  | 
12 | CCCCC/C=C\C=C\C(=O)CCCCCCCC(=O)O [9-OxoODE] | 359280 | 5.39 |  | 
13 | CCCCCCCC/C(=C\CCCCCCCC(=O)O)[N+](=O)[O-] [10-Nitrooleate] | 28200 | −22.42 |  | 
14 | CCCCC/C=C\C[C@H]1O[C@H]1C/C=C\C/C=C\CCCC(=O)NCCO [11(12)-EET Ethanolamide] | 440800 | 8.74 |  | 
15 | CCCCC/C=C\C=C\[C@H](O)CCCCCCCCCC(=O)O [11(R)-HEDE] | 1674200 | 103.16 |  | 
16 | CC/C=C\C/C=C\C=C\[C@H](O)C/C=C\C/C=C\CCCC(=O)O [11(R)-HEPE] | 940920 | 48.64 |  | 
17 | CCCCC/C=C\C=C\[C@H](O)C/C=C\C/C=C\CCCC(=O)O [11(R)-HETE] | 1064120 | 57.80 |  | 
18 | CCCCC/C=C\C=C\[C@@H](O)CCCCCCCCCC(=O)O [11(S)-HEDE] | 1056440 | 57.23 |  | 
19 | CC/C=C\C/C=C\C=C\[C@@H](O)C/C=C\C/C=C\CCCC(=O)O [11(S)-HEPE] | 1525600 | 92.11 |  | 

Row | Compound | HSD17B13 Enzymatic Activity Relative Light Units [1] [RLU] | HSD17B13 Enzymatic Activity Percent Estradiol Control [2] [%] | HSD17B13 Enzymatic Activity Relative Light Units (Steroid Library, 50 μM steroid) [RLU] | HSD17B13 Enzymatic Activity Percent Estradiol Control (Steroid Library, 50 μM steroid) [%]
20 | CCCCC/C=C\C=C\[C@@H](O)C/C=C\C/C=C\CCCC(=O)O [11(S)-HETE] | 696400 | 30.46 |  | 
21 | [2H]C([2H])(/C=C\C[C@H]1[C@@H](O)CC(=O)O[C@@H]1/C=C/[C@@H](O)CCCCC)C([2H])([2H])CC(=O)O [11-dehydro Thromboxane B2-d4] | 366280 | 3.11 |  | 
22 | CCCCCC(O)C=CC1OC(=O)CC(O)C1CC=CCCCC(=O)O (centres unmarked) [11-dehydro Thromboxane B2] | 349160 | 5.22 |  | 
23 | CC/C=C\C[C@H](O)/C=C/[C@H]1OC(=O)C[C@H](O)[C@@H]1C/C=C\CCCC(=O)O [11-dehydro Thromboxane B3] | 322480 | 3.11 |  | 
24 | CCCCCC(O)C=CC1OC(=O)CC(O)C1CC=CCC(=O)O (centres unmarked) [11-dehydro-2,3-dinor Thromboxane B2] | 183120 | −7.90 |  | 
25 | C[C@]12CC[C@@H](O)C[C@@H]1CC[C@@H]1[C@@H]2[C@@H](O)C[C@]2(C)C(=O)CC[C@@H]12 [11beta-Hydroxyandrosterone] |  |  | 224720 | 1.12
26 | CCCCCC(=O)CC[C@@H]1[C@@H](C/C=C\CCCC(=O)O)[C@@H](O)C[C@@H]1O [11β-13,14-dihydro-15-keto Prostaglandin F2α] | 310000 | 2.13 |  | 
27 | CCCCC(C)(O)C/C=C/[C@H]1[C@@H](O)CC(=O)[C@@H]1CCCCCCC(=O)OC (stereo partly drawn) [11β-Misoprostol] | 331200 | 3.80 |  | 
28 | CCCCC[C@H](O)/C=C/[C@H]1[C@@H](O)CC(=O)[C@@H]1C/C=C\CCCC(=O)O [11β-Prostaglandin E2] | 354840 | 5.67 |  | 
29 | CCCCC/C=C\C[C@@H](O)/C=C/C=C\C/C=C\CCCC(=O)O [12(R)-HETE] | 1932320 | 122.36 |  | 
30 | CCCCC/C=C\C[C@@H](/C=C/C=C\C/C=C\CCCC(=O)O)OO [12(S)-HpETE] | 199760 | −6.47 |  | 
31 | CCCCCCCC[C@@H](O)C=CC=CC=C[C@@H](O)CCCC(=O)O [12-epi Leukotriene B3] | 481880 | 15.71 |  | 
32 | CCCCC/C=C\C[C@H](O)/C=C/C=C/C=C\[C@@H](O)CCCC(=O)O [12-epi Leukotriene B4] | 389240 | 8.39 |  | 
33 | CCCCC[C@@H](O)/C=C/C=C\CCCCCCCC(=O)O [13(R)-HODE] | 1105960 | 60.91 |  | 
34 | CCCCC[C@H](O)/C=C/C=C\CCCCCCCC(=O)O [13(S)-HODE] | 792800 | 37.62 |  | 
35 | CCCCC[C@H](O)/C=C/C=C\C/C=C\CCCCC(=O)O [13(S)-HOTrE(γ)] | 458840 | 12.79 |  | 
36 | CC/C=C\C[C@H](O)/C=C/C=C\CCCCCCCC(=O)O [13(S)-HOTrE] | 528240 | 17.95 |  | 
37 | CCCCC[C@@H](/C=C/C=C\CCCCCCCC(=O)O)OO [13(S)-HpODE] | 183040 | −7.72 |  | 
